From PMC6497424 (ACS Catalysis, 2019)
Each block holds one molecule with its values, some of them ahead of it.

How the values were obtained:
[1] = target: T1, PtHmfF (P. thermopropionicum HmfF) (Pelotomaculum thermopropionicum, UniProt A5D4Z9); assay: in vitro reconstitution of apo-enzyme; UV-vis spectra and activity; format: biochemical; details: reduced prFMN added anaerobically, then oxidative maturation in air; FDCA 900 μM, 25 °C
T1 construct: gene UbiD; codon-optimised, full length; pET30a C-terminal His-tag from E. coli BL21(DE3), coexpressed with E. coli UbiX; untagged (pET21b) for crystals; hexamer (D3); The eightfold dimer variant is in pET28a (His-tag)

[2] = target: T2, PtHmfF (P. thermopropionicum HmfF) (Pelotomaculum thermopropionicum, UniProt A5D4Z9, A315N/N348R/F351D/T355N/A388P/F393T/V395F/M399R); assay: X-ray crystal structure, […] Å; format: binding; details: dimer variant; cofactor copurified from UbiX coexpression
T2 construct: gene UbiD; codon-optimised, full length; pET30a C-terminal His-tag from E. coli BL21(DE3), coexpressed with E. coli UbiX; untagged (pET21b) for crystals; hexamer (D3); The eightfold dimer variant is in pET28a (His-tag)

[3] = target: Pelotomaculum thermopropionicum 2,5-furandicarboxylic acid decarboxylase (HmfF), wild type, untagged (Pelotomaculum thermopropionicum); assay: crystal structure; untagged PtHmfF, space group P21, crystals soaked with FMN in the presence of K+ and Mn2+, data to 2.7 Å, six monomers in the asymmetric unit; solved by Se-Met SAD
[4] = target: Pelotomaculum thermopropionicum HmfF dimer variant (A315N, N348R, F351D, T355N, A388P, F393T, V395F, M399R) (Pelotomaculum thermopropionicum); assay: SEC-MALS; 25 °C; 500 μL of 1.5 mg/mL protein on Superdex 200 10/300GL; 200 mM KCl, 1 mM MnCl2, 50 mM Tris pH 7.5; 0.75 mL/min
[5] = target: Pelotomaculum thermopropionicum HmfF dimer variant (A315N, N348R, F351D, T355N, A388P, F393T, V395F, M399R) (Pelotomaculum thermopropionicum); assay: crystal structure; PtHmfF dimer variant with prFMN, crystals grown at 4 °C, 2.3 Å, molecular replacement with the WT monomer; two monomers in the asymmetric unit
[6] = target: T1, PtHmfF (P. thermopropionicum HmfF); assay: X-ray crystal structure, […] Å, FMN soak; format: binding; details: K+ and Mn2+ present; stable analogue in prFMN site; untagged enzyme

Molecule: Cc1cc2c3c(c1C)C(C)(C)CC=[N+]3c1c([nH]c(=O)[nH]c1=O)N2C[C@H](O)[C@H](O)[C@H](O)COP(=O)(O)O [prFMN]
in vitro reconstitution of apo-enzyme; UV-vis spectra and activity [1]: HmfF requires oxidative maturation of prFMN for activity | X-ray crystal structure, 2.3 Å [2]: the dimer variant crystals contain prFMN in the active site

stoichiometry N [3]: 6
Molecule: Pelotomaculum thermopropionicum 2,5-furandicarboxylic acid decarboxylase (HmfF), wild type, untagged (enzyme)

stoichiometry N [4]: 2 | stoichiometry N [5]: 2
Molecule: Pelotomaculum thermopropionicum HmfF dimer variant (A315N, N348R, F351D, T355N, A388P, F393T, V395F, M399R) (enzyme)

Molecule: Cc1cc2nc3c(=O)[nH]c(=O)nc-3n(C[C@H](O)[C@H](O)[C@H](O)COP(=O)(O)O)c2cc1C [FMN]
X-ray crystal structure, 2.7 Å, FMN soak [6]: revealing clear electron density for both the FMN and the associated metal ions
